Assay results published in article PMC9298260, “An Immunomodulatory Peptide Dendrimer Inspired from Glatiramer Acetate” (Angewandte Chemie (International Ed. in English), 2021).

How the values were obtained:
Experiment in all cases: IL-1Ra release from human primary monocytes, immunoassay (ELISA) of supernatants
Assay type in all cases: cell-based
[1] = system: IL-1Ra release from human primary monocytes; parameters: key: +: Ability to induce IL-1Ra on primary monocytes after 48 h of incubation; Ability to induce IL-1Ra on primary monocytes after 48 h of incubation; conditions: for IL-1Ra: ability to induce IL-1Ra on primary monocytes after 48 h of incubation, class + / -; for Act. (ability to induce IL-1Ra): primary monocytes, 48 h
Protocol: (§1) As an activity screen we focused on interleukin‐1 receptor antagonist (IL‐1Ra), a cytokine released by circulating antigen presenting cells (APC) in response to GA.[15, 35] […] To test our dendrimers, we quantified by immunoassay the release of IL‐1Ra from human primary monocytes of healthy donors, an easily accessible type of APC, stimulated or not by addition of lipopolysaccharide (LPS), which in our hands provided a reliable read‐out.[15] We tested at defined weight/volume (25 and 50 μg mL^−1 compound as typically reported for GA)[15, 35] to account for a possible activity increase with MW as often observed with dendrimers when using molarity. In the initial screen the levels of secreted IL‐1Ra remained below 1 ng mL^−1 for all the smaller test compounds as well as with the linear peptide analogs of GA.
(§2) Figure 2 Cytokine level of IL‐1Ra in supernatants of primary human monocytes of healthy donors treated with peptide dendrimers, evaluated by ELISA (bars, left vertical axis) and mRNA levels (▴, right vertical axis). […] For mRNA levels evaluation, 2×10^6 cells 3 mL^−1 in 6 well plates were incubated with 50 μg mL^−1 dendrimer or GA for 18 h. […]
(§3) Enzyme-linked immunosorbent assay (ELISA)
(§4) Monocytes (5×10^4 cells/200 μL well; 96-well plates) were preincubated for 1 h with or without compounds in RPMI-1640 medium supplemented with 10% heat-inactivated FBS, 50 μg/mL streptomycin, 50 U/mL penicillin, 2 mM L-glutamine, and 5 μg/mL polymyxin B sulfate and then cultured for 48 h in the presence or absence of LPS (100 ng/mL) (2). The production of IL-1Ra was measured in culture supernatants by commercially available enzyme immunoassay according to manufacture protocol.
(§5) Figure S2. Cytokine level of IL-1Ra in supernatants of monocytes for active dendrimers and analogues evaluated by ELISA assay on primary human monocytes of healthy donors. 5×10^4 cells/200 µL in 96 well plates, were incubated with dendrimers or GA as a control for 48 h in presence or absence of LPS (100 ng/mL), in a range of concentrations (50-25 µg/mL) (mean ± SD, n = 2 different experiments). The results are present as the difference between each sample and the non-treated sample to take into account the difference between base line for each donor.
(§6) Figure S3. Cytokine level of IL-1Ra in supernatants of monocytes for active dendrimers and […]
(§7) presence or absence of LPS (100 ng/mL), in a range of concentrations (100-12.5 µg/mL) (mean ± SD, n = 3 different experiments). […]

[2] = system: IL-1Ra release from human primary monocytes; parameters: key: +: Ability to induce IL‐1Ra on primary monocytes after 48 h of incubation in the presence of 25–50 μg mL^−1 compound; Ability to induce IL‐1Ra on primary monocytes after 48 h of incubation in the presence of 25–50 μg mL^−1 compound; conditions: for Act. (ability to induce IL-1Ra): Table 1, 48 h, 25–50 μg mL^−1 compound; for IL-1Ra: 48 h
Protocol: as §1, §2, §3, §4, §5, §6, §7

[3] = system: IL-1Ra release from human primary monocytes; conditions: primary human monocytes of healthy donors, 25 and 50 μg mL^−1, 48 h
Protocol: as §1, §2, §3, §4, §5, §6, §7

| Substance | IL-1Ra [1] | Act. (ability to induce IL-1Ra) ([1]; Table S1 initial library) | further results |
| --- | --- | --- | --- |
| (AK)4(KAEAKAKE)2KKEYEYC(Coumarin)A-NH2 [26Coum] | - |  |  |
| (AK)4(KAEAKAKE)2KKEYEYCA-NH2 [compound 26] | - |  |  |
| (AK)8(KAK)4(KEKA)2KAKEAYCA-NH2 [compound 34] | + |  | Act. (ability to induce IL-1Ra) [2]: +; IL-1Ra ([2]; supplement s001.csv): +; IL-1Ra ([2]; supplement s003.zip SMILES csv): +; IL-1Ra release activity (in words) [3]: preserved; Act. (ability to induce IL-1Ra) ([1]; Table S2 analogs of 1 and 4): + |
| (AK)8(KAKAKY)4(KAKEYEY)2KAKEYEY-NH2 [compound 5] | - | - | Act. (ability to induce IL-1Ra) [2]: − |
| (AcAKA)4(KEK)2KYEY-OH [Ac11] | - | - |  |
| (AcAKA)4(KEY)2KYKK-NH2 [Ac15] | - | - |  |
| (AcAKA)4(KKEY)2KE-OH [Ac10] | - | - |  |
| (AcAKA)8(KYEK)4(KEKA)2KAKY-OH [Ac3] | - | - |  |
| (AcAKE)4(KAYA)2KKKK-NH2 [Ac16] | - | - |  |
| (AcAKE)4(KKAY)2KYKY-NH2 [Ac22] | - |  |  |
| (AcAYK)4(KE)2KKAA-OH [Ac9] | - | - |  |
| (AcKA)8(KAK)4(KEKA)2KAKEAYCA-NH2 [Ac1] | - | - | Act. (ability to induce IL-1Ra) [2]: −; IL-1Ra release activity (in words) [3]: abolished |
| (AcKA)8(KKKAK)4(KEKA)2KAKEAYCA-NH2 [Ac36] | + |  | Act. (ability to induce IL-1Ra) [2]: +; IL-1Ra ([2]; supplement s001.csv): +; IL-1Ra ([2]; supplement s003.zip SMILES csv): +; IL-1Ra release activity (in words) [3]: preserved; Act. (ability to induce IL-1Ra) ([1]; Table S2 analogs of 1 and 4): + |
| (AcKAA)4(KYYE)2KAY-NH2 [Ac19] | - |  |  |
| (AcKAE)4(KAEK)2KYYA-OH [Ac18] | - | - |  |
| (AcKAK)4(KAEY)2KAEA-OH [Ac20] | - |  |  |
| (AcKEAKY)4(KKYEA)2KEKAYKA-NH2 [Ac27] | - |  |  |
| (AcKYA)4(KEA)2KKKA-OH [Ac14] | - | - |  |
| (ClAcAKA)4(KEK)2KYEY-OH [ClAc11] | - | - |  |
| (ClAcAKA)4(KKEY)2KE-OH [ClAc10] | - | - |  |
| (ClAcAKA)8(KYEK)4(KEKA)2KAKY-OH [ClAc3] | - | - |  |
| (ClAcAKE)4(KKAY)2KYKY-NH2 [ClAc22] | - |  |  |
| (ClAcK)4(KAYE)2KAKYAEA-NH2) [ClAc13] | - | - |  |

| Substance | IL-1Ra [1] | Act. (ability to induce IL-1Ra) ([1]; Table S1 initial library) | further results |
| --- | --- | --- | --- |
| (ClAcK)4(KEAKAKEY)2KAKEYEY-OH [ClAc25] | - |  |  |
| (ClAcKA)4(KAYE)2KK-OH [ClAc6] | - | - |  |
| (ClAcKA)4(KEYA)2KKAK-OH [ClAc7] | - | - |  |
| (ClAcKAA)4(KYYE)2KAY-NH2 [AcCl19] | - |  |  |
| (ClAcKAE)4(KAEK)2KYYA-OH [ClAc18] | - | - |  |
| (ClAcKEAKY)4(KKYEA)2KEKAYKA-NH2 [ClAc27] | - |  |  |
| (ClAcKYA)4(KEA)2KKKA-OH [ClAc14] | - | - |  |
| (FumAKA)4(KEY)2KYKK-NH2 [Fum15] | - | - |  |
| (FumAKE)4(KAYA)2KKKK-NH2 [Fum16] | - | - |  |
| (FumKA)8(KAK)4(KEKA)2KAKEAYCA-NH2 [Fum1] | - | - | IL-1Ra release activity (in words) [3]: abolished |
| (FumKA)8(KKAKE)4(KYKAKA)2KAYKKA-OH [Fum4] | - | - | IL-1Ra release activity (in words) [3]: abolished |
| (FumKA)8(KKKAK)4(KEKA)2KAKEAYCA-NH2 [Fum36] | + |  | Act. (ability to induce IL-1Ra) [2]: +; IL-1Ra ([2]; supplement s001.csv): +; IL-1Ra ([2]; supplement s003.zip SMILES csv): +; IL-1Ra release activity (in words) [3]: preserved; Act. (ability to induce IL-1Ra) ([1]; Table S2 analogs of 1 and 4): + |
| (K)4(KAYAEY)2KAKAEYA-NH2 [compound 17] | - | - |  |
| (KA)8(KAK)4(KEKA)2KAKEAYC(Fluo)A-NH2 [1Fl, analog of 1 bearing a fluorescein label at the dendrimer core] | + |  | Act. (ability to induce IL-1Ra) [2]: +; IL-1Ra ([2]; supplement s001.csv): +; IL-1Ra ([2]; supplement s003.zip SMILES csv): +; Act. (ability to induce IL-1Ra) ([1]; Table S2 analogs of 1 and 4): + |
| (KA)8(KAK)4(KEKA)2KAKEAYCA-NH2 [sr-1] | + |  | Act. (ability to induce IL-1Ra) [2]: +; IL-1Ra ([2]; supplement s001.csv): +; IL-1Ra ([2]; supplement s003.zip SMILES csv): +; IL-1Ra release activity (in words) [3]: as active as the pure L‐enantiomers; Act. (ability to induce IL-1Ra) ([1]; Table S2 analogs of 1 and 4): + |
| (KA)8(KAK)4(KEKA)2KAKEAYCA-NH2)2 (disulfide) [1-1, disulfide bridged dimer of 1] | + |  | Act. (ability to induce IL-1Ra) [2]: +; IL-1Ra ([2]; supplement s001.csv): +; IL-1Ra ([2]; supplement s003.zip SMILES csv): +; IL-1Ra release activity (in words) [3]: active; Act. (ability to induce IL-1Ra) ([1]; Table S2 analogs of 1 and 4): + |
| (KAA)4(KEY)2KAKEYEYA-NH2 [compound 24] | - |  |  |
| (KAA)8(KKAKAK)4(KAAKKY)2KEKAKCA-OH [compound 30] | - |  |  |
| (KAEKAYA)4(KEKYAKA)2KEKYKA-NH2 [compound 2] | - | - | Act. (ability to induce IL-1Ra) [2]: − |
| (KAK)4(KEKA)2KAKEAYCA-NH2 [compound 33] | - |  | Act. (ability to induce IL-1Ra) [2]: −; Act. (ability to induce IL-1Ra) ([1]; Table S2 analogs of 1 and 4): - |
| (KYA)4(KAE)2KAEYKCA-NH2 [compound 23] | - |  |  |
| (YKAKAKY)4(KEAKAKY)2KAKEYEY-OH [compound 29] | - |  |  |
